These results are taken from US7811599B2, “Pharmaceutical combinations comprising a fungicide, a bacteriostatic sulphonamide and an antibacterial compound for topical application” (priority 2001, dated 2010).

Common to all, as to format: cell-based
Test [1] deals with all tested bacteria and fungi. The experiment in a line: MIC values of active ingredients on 9 different microbe strains, summary in words. The settings on record: summary of Table I. On the procedure: For fungi: Sabouraud nutrient liquid containing glucose, tripsine digested casein and water.
The experiments are carried out in an ambience free of germs.
(§1) The following compounds were tested: azithromycin, clarithromycin, erythromycin, miconazole, primicin-sulphate. Test organisms: Bacteria: Escherichia coli, Pseudomonas aeruginosa, Serratia marcescens, Staphylococcus aureus, Streprococcus pyogenes. Fungi: Aspergillus flavus, Fusarium oxysporum, Candida albicans, Candida parapsilosus. Nutrient media: Soye bouillon, Sabouraud nutrient liquor. Solvents: methanol a.r. and for primicin-sulphate the mixture of butanol:ethanol:water in the ratio of 1:1:2. Negative control: nutrient medium exempt of test organisms. Positive control: nutrient medium and 10 μL of the inoculum.
Following preparation of the inoculum and incubation the MIC values were determined according to the above.

Another test has as its system Pseudomonas aeruginosa. The experiment in a line: MIC values of active ingredients (in nutrient liquid). The conditions noted are these: Table I. On the procedure: as §1, with “The experiments are carried out in an ambience free of germs. […] The” for “The”, “[…]-sulphate.” for “primicin-sulphate.”, “[…]-sulphate” for “primicin-sulphate”, “inoculum. Following preparation of the inoculum and incubation the MIC values were determined according to the above.” for “inoculum.”

A further test relates to Staphylococcus aureus. The description is as above. The conditions noted are these: Table I. The method, then: as §1, with “The experiments are carried out in an ambience free of germs. […] The” for “The”, “[…]-sulphate.” for “primicin-sulphate.”, “[…]-sulphate” for “primicin-sulphate”, “inoculum. Following preparation of the inoculum and incubation the MIC values were determined according to the above.” for “inoculum.”

For another test, the system named is Streptococcus pyogenes. The test is described as above. The conditions noted are these: Table I. The method, then:
as §1, with “The experiments are carried out in an ambience free of germs. […] The” for “The”, “[…]-sulphate.” for “primicin-sulphate.”, “[…]-sulphate” for “primicin-sulphate”, “inoculum. Following preparation of the inoculum and incubation the MIC values were determined according to the above.” for “inoculum.”

The test system of another test is Escherichia coli. The test is described as above. The conditions noted are these: Table I. The method, then:
as §1, with “The experiments are carried out in an ambience free of germs. […] The” for “The”, “[…]-sulphate.” for “primicin-sulphate.”, “[…]-sulphate” for “primicin-sulphate”, “inoculum. Following preparation of the inoculum and incubation the MIC values were determined according to the above.” for “inoculum.”

The next test concerns Serratia marcescens. The description is as above. The settings on record: Table I. On the procedure:
as §1, with “The experiments are carried out in an ambience free of germs. […] The” for “The”, “[…]-sulphate.” for “primicin-sulphate.”, “[…]-sulphate” for “primicin-sulphate”, “inoculum. Following preparation of the inoculum and incubation the MIC values were determined according to the above.” for “inoculum.”

A further test deals with Candida albicans. The test is described as above. The conditions noted are these: Table I. The method, then: as §1, with “For fungi: Sabouraud nutrient liquid containing glucose, […] digested casein and water. The experiments are carried out in an ambience free of germs. […] The” for “The”, “[…]-sulphate.” for “primicin-sulphate.”, “[…]-sulphate” for “primicin-sulphate”, “inoculum. Following preparation of the inoculum and incubation the MIC values were determined according to the above.” for “inoculum.”

A further test concerns Candida parapsilosis. The description is as above. The conditions noted are these: Table I; for MIC: Lodderomyces parapsilosis. The method, then: as §1, with “For fungi: Sabouraud nutrient liquid containing glucose, […] digested casein and water. The experiments are carried out in an ambience free of germs. […] The” for “The”, “[…]-sulphate.” for “primicin-sulphate.”, “[…]-sulphate” for “primicin-sulphate”, “inoculum. Following preparation of the inoculum and incubation the MIC values were determined according to the above.” for “inoculum.”

In the next test the test system is Fusarium oxysporum. Described as above. The settings on record: Table I. The method, then:
as §1, with “For fungi: Sabouraud nutrient liquid containing glucose, […] digested casein and water. The experiments are carried out in an ambience free of germs. […] The” for “The”, “[…]-sulphate.” for “primicin-sulphate.”, “[…]-sulphate” for “primicin-sulphate”, “inoculum. Following preparation of the inoculum and incubation the MIC values were determined according to the above.” for “inoculum.”

In a further test the test system is Aspergillus flavus. Described as above. The conditions noted are these: Table I. The method, then:
as §1, with “For fungi: Sabouraud nutrient liquid containing glucose, […] digested casein and water. The experiments are carried out in an ambience free of germs. […] The” for “The”, “[…]-sulphate.” for “primicin-sulphate.”, “[…]-sulphate” for “primicin-sulphate”, “inoculum. Following preparation of the inoculum and incubation the MIC values were determined according to the above.” for “inoculum.”

Values after ≈ are worked out from the molar mass of the structure shown. Some results are limits rather than exact numbers.

For orientation: MIC means the lowest concentration that inhibits growth of the organism. Read a low MIC as greater potency. Consider `CC[C@H]1OC(=O)[C@H](C)[C@@H](O[C@H]2C[C@@](C)(OC)[C@@H](O)[C@H](C)O2)[C@H](C)[C@@H](O[C@@H]2O[C@H](C)C[C@H](N(C)C)[C@H]2O)[C@](C)(O)C[C@@H](C)CN(C)[C@H](C)[C@@H](O)[C@]1(C)O` [azithromycin], for which the “activity in the MIC test, in words” value in [1] is “effective on all tested bacteria”. Further, the MIC is 65 µg/mL (≈ 86.8 µM) in the test with Pseudomonas aeruginosa; 2 µg/mL (≈ 2.67 µM) in the test with Staphylococcus aureus; 3 µg/mL (≈ 4.01 µM) against Streptococcus pyogenes; 6 µg/mL (≈ 8.01 µM) with Escherichia coli; 8 µg/mL (≈ 10.7 µM) against Serratia marcescens; greater than 500 µg/mL with Candida albicans. Moreover, the MIC against Candida parapsilosis was 500 µg/mL (≈ 668 µM); with Fusarium oxysporum it was greater than 500 µg/mL; with Aspergillus flavus, greater than 500 µg/mL.
Regarding `CC[C@H]1OC(=O)[C@H](C)[C@@H](O[C@H]2C[C@@](C)(OC)[C@@H](O)[C@H](C)O2)[C@H](C)[C@@H](O[C@@H]2O[C@H](C)C[C@H](N(C)C)[C@H]2O)[C@](C)(OC)C[C@@H](C)C(=O)[C@H](C)[C@@H](O)[C@]1(C)O` [clarithromycin], the MIC was 80 µg/mL (≈ 107 µM) in the test with Pseudomonas aeruginosa; 0.2 µg/mL (≈ 0.267 µM) against Staphylococcus aureus; 1 µg/mL (≈ 1.34 µM) with Streptococcus pyogenes; 95 µg/mL (≈ 127 µM) against Escherichia coli; 100 µg/mL (≈ 134 µM) against Serratia marcescens; greater than 100 µg/mL against Candida albicans. The MIC against Candida parapsilosis, in the test with Fusarium oxysporum and in the test on Aspergillus flavus was greater than 100 µg/mL in each case.
For the molecule `CC[C@H]1OC(=O)[C@H](C)[C@@H](O[C@H]2C[C@@](C)(OC)[C@@H](O)[C@H](C)O2)[C@H](C)[C@@H](O[C@@H]2O[C@H](C)C[C@H](N(C)C)[C@H]2O)[C@](C)(O)C[C@@H](C)C(=O)[C@H](C)[C@@H](O)[C@]1(C)O` [erythromycin], the MIC in the test on Pseudomonas aeruginosa is 90 µg/mL (≈ 123 µM); against Staphylococcus aureus, 1 µg/mL (≈ 1.36 µM); against Streptococcus pyogenes, 3 µg/mL (≈ 4.09 µM); against Escherichia coli, 100 µg/mL (≈ 136 µM); against Serratia marcescens, 300 µg/mL (≈ 409 µM); with Candida albicans, greater than 500 µg/mL. Further, the MIC was 500 µg/mL (≈ 681 µM) against Candida parapsilosis, greater than 500 µg/mL against Fusarium oxysporum and greater than 500 µg/mL with Aspergillus flavus.
With `Clc1ccc(COC(Cn2ccnc2)c2ccc(Cl)cc2Cl)c(Cl)c1` (stereo not drawn) [miconazole], the “activity in the MIC test, in words” value in [1] was “inhibits all tested fungi and cocci”. For the same molecule, the MIC was greater than 500 µg/mL against Pseudomonas aeruginosa; 3 µg/mL (≈ 7.21 µM) in the test on Staphylococcus aureus; 0.5 µg/mL (≈ 1.2 µM) in the test with Streptococcus pyogenes; greater than 500 µg/mL in the test on Escherichia coli; greater than 500 µg/mL against Serratia marcescens; 0.5 µg/mL (≈ 1.2 µM) against Candida albicans. The values for the MIC with Candida parapsilosis, in the test on Fusarium oxysporum and against Aspergillus flavus were 0.2 µg/mL (≈ 0.481 µM), greater than 8 µg/mL and 2 µg/mL (≈ 4.81 µM), respectively.
Turning to primycin, in test [1], the “activity in the MIC test, in words” value is on record as “acceptably active against Candida type fungi but not against all tested bacteria”. Also, the MIC values with Pseudomonas aeruginosa was 100< μg/ml; in the test with Staphylococcus aureus, 0.2 µg/mL; in the test on Streptococcus pyogenes, 0.5 µg/mL; in the test on Escherichia coli it was 100< μg/ml; in the test on Serratia marcescens, 100< μg/ml; with Candida albicans it was 18 µg/mL. Besides, the figures for the MIC values in the test with Candida parapsilosis, in the test with Fusarium oxysporum and with Aspergillus flavus were 5.0 µg/mL, 100< μg/ml and 100< μg/ml, respectively.
